Laboratory results published in patent US9545393B2, “Methods and compositions for treating pain” (The Board of Trustees of the Leland Stanford Junior …, priority 2012, dated 2017).
Entries after “also recorded” stand apart in the source; their conditions may differ.

Assays:
[1] = system: ALDH2 *1/*2 mice; assay: Acetaldehyde vapor experiments with sub-threshold carrageenan, von Frey nociception; type: in vivo, mouse; conditions: ALDH2 *1/*2 mice exposed to acetaldehyde vapor, with Alda-1
Procedure: von Frey hair testing method: Hind paw nociception was assessed with six different von Frey hairs (0.03, 0.17, 0.41, 0.69, 1.20 and 1.48 g). Mice were placed individually in a plastic cage with a wire mesh bottom. After acclimation for at least 15 min, a von Frey hair was pressed perpendicularly against the plantar skin surface and held for approximately 5 seconds until hair slightly buckled. Using the same stimulation intensity […], each individual hair was applied six times to each hind paw at intervals of several seconds.
Since the response to each von Frey stimulus is fairly subjective, we used a method of objectifying these nociceptive responses by assigning a specific number to the response. Our scoring system consisted of: […], 1=withdraws paw from hair and 0=immediate flinching or hind paw licking. This method was previously shown by others to provide a reliable, objective assessment of pain response using von Frey hairs (Dale C S, et al., (2009) Analgesic properties of S100A9 C-terminal domain: a mechanism dependent on calcium channel inhibition. Fundamental & clinical pharmacology 23: 427-438; Takasaki I, et al., (2000) Allodynia and hyperalgesia induced by herpes simplex virus type-1 infection in mice. Pain 86: 95-101).
Acetaldehyde Experiments. […] A subset of these mice was exposed to acetaldehyde vapor with or without Alda-1. […]

[2] = system: rats subjected to carrageenan insult to the right hind paw; assay: Randall-Selitto paw pressure test, carrageenan-induced hyperalgesia in rats; type: in vivo, rat
Procedure: Rats. Male Wistar rats (170-190 g) were provided by Charles River Laboratories or Butantan Institute Animal Facility and housed in a temperature-controlled (22±1° C.) and light-controlled (12/12 h light/dark cycle) room. All rats were housed in their surrounding for at least 3 days. Groups of 5-6 rats were used.
Drugs Used. 0.1 ml saline (control), carrageenan (200 μg for rats, 100 μg for mice; Marine Colloids), or prostaglandin E2 (100 ng, Sigma) was administered by intraplantar injection into the right hind paw to induce hyperalgesia. These doses were chosen based on previous studies by our laboratory groups (Aley K O, et al., (2000) Chronic hypersensitivity for inflammatory nociceptor sensitization mediated by the epsilon isozyme of protein kinase C. The Journal of neuroscience: the official journal of the Society for Neuroscience 20: 4680-4685; Konno K, et al., (2008) Crotalphine, a novel potent analgesic peptide from the venom of the South American rattlesnake Crotalus durissus terrificus. Peptides 29: 1293-1304).
(§1) Alda-1 dose (2 mg/kg/per injection, dissolved in 50% PEG/50% DMSO) was established in preliminary studies and given in multiple doses due to its estimated short half-life. Alda-1 was injected subcutaneously to the dorsal side of the neck 15 minutes before carrageenan or saline, and again at 30 and 150 minutes after carrageenan, prostaglandin E2 or saline injection. One subset of animals received Alda-1 only 30 and 150 minutes after carrageenan injection. Where indicated, naloxone (1 mg/kg per injection) or vehicle (saline) was given 10 minutes prior to each Alda-1 treatment to the dorsal side of the neck.
Nociception Assessment. The experimental performer was blinded to both genotype and/or treatments. Nociceptive response was assessed by the von Frey method for mice and the Randall-Selitto method for rats immediately before and 180 minutes after carrageenan or prostaglandin E2 injection. Both mice and rats were acclimated to the testing equipment one day before baseline testing.
Randall-Selitto method: Nociceptive threshold was determined using the Randall-Selitto paw pressure test (Ugo-Basile), as previously described (Gutierrez V P, et al., (2008) Crotalphine induces potent antinociception in neuropathic pain by acting at peripheral opioid receptors. European journal of pharmacology 594: 84-92). The baseline values varied between 65-75 g of force. Animals with baseline out of this range (about 10%) were excluded prior to initiating the study in order to achieve uniform testing.

[3] = system: ALDH2 wild type mice; assay: von Frey hair test, carrageenan-induced acute pain model, wild type mice; type: in vivo, mouse; conditions: von Frey hair (1.20 gram in FIG. 1E), Alda-1 2 mg/kg s.c.
[4] = Half-life of Alda-1 (preliminary studies); type: in vivo; conditions: estimated; reason for multiple doses
Procedure: as §1

[5] = system: mast cell chymase; assay: Western blot of mast cell chymase in paw after carrageenan; type: in vivo, rat; conditions: rats, 3 hours after carrageenan; Alda-1 versus vehicle
Procedure: Biochemical Studies In Rats and Mice. Protein was isolated from rat paw tissue at 3 hours after treatment or from liver tissue of mutant or wild type mice. Tissues were homogenized in buffer containing (Hepes 10 mM, NaCl 0.9%, EGTA 1 mM, DTPA 100 μM, Triton-X 1%, Protease and Phosphatase inhibitors (AEBSF, Aprotinin, Bestatin, E-64, Leupeptin, Pepstatin A, Sodium orthovanadate, Sodium molybdate, Sodium tartrate, Imidazole, Cantharidin, (−)-p-Bromolevamisole oxalate and Calyculin A). The samples were centrifuged at 700 g for 5 min at 4° C. Mitochondrial fraction from liver was obtained as previously described (Chen, et al. (2008) Activation of aldehyde dehydrogenase-2 reduces ischemic damage to the heart. Science 321, 1493-1495; Sun, L., et al. ALDH2 activator inhibits increased myocardial infarction injury by nitroglycerin tolerance. Sci Transl Med 3, 107ra111). Activation of aldehyde dehydrogenase-2 reduces ischemic damage to the heart. Science 2008; 321:1493-5). The protein concentration was determined in the supernatants by using Bradford (Bradford, M. M. (1976). A rapid and sensitive method for the quantitation of microgram quantities of protein utilizing the principle of protein-dye binding. Anal Biochem 72, 248-254).
Western blot analysis. […] Quantification analysis of blots was performed with Image J software, using GAPDH as a loading control.

Half-life [4]: short
SMILES: O=C(NCc1ccc2c(c1)OCO2)c1c(Cl)cccc1Cl [Alda-1, N-(1,3-benzodioxol-5-ylmethyl)-2,6-dichlorobenzamide]
Acetaldehyde-exacerbated hyperalgesia after carrageenan (50 μg) [1]: rescued; also recorded: reversed | Nociceptive threshold when Alda-1 is given after the insult ([2]; Alda-1 2 mg/kg s.c. only 30 and 150 minutes after carrageenan, Randall-Selitto, P<0.0001, 2 mg/kg): increased the nociceptive threshold; also recorded: significantly increased nociceptive threshold | Nociceptive threshold (FIG. 1B) ([2]; carrageenan insult, Alda-1 2 mg/kg s.c., 3 hours after insult, P<0.001): significantly increased nociceptive threshold | Increase of nociceptive threshold ([2]; carrageenan-induced model, Alda-1 2 mg/kg s.c. 15 min before and 30 and 150 min after insult, tested 3 hours after insult): 2 fold | Reduction of carrageenan-induced hyperalgesia compared with atenolol or celecoxib ([2]; comparison to previous publication using the same rat hyperalgesia model (Chacur et al, 2003)): more effective than atenolol or celecoxib | Effect of Alda-1 on nociceptive threshold in the presence of naloxone ([2]; naloxone 1 mg/kg s.c. 10 minutes before each Alda-1 treatment, Alda-1 after carrageenan): not blunted | Nociceptive threshold relative to vehicle-treated mice [3]: significantly increased pain threshold; also recorded: doubling the nociceptive threshold | Mast cell chymase level in the paw [5]: no differences; also recorded: increased equally
